According to PMC5823845 (Bioorganic & Medicinal Chemistry, 2018):
Entries after “also recorded” stand apart in the source; their conditions may differ. Like-named read-outs stand apart in the source and are kept apart here.

Legend:
mouse RAR alpha receptor = target: T1, mouse RAR alpha receptor (Mus musculus, UniProt P11416); details: relative to the amplitude of the normalizing ATRA output
T1 sequence (P11416 183-417 limits assumed): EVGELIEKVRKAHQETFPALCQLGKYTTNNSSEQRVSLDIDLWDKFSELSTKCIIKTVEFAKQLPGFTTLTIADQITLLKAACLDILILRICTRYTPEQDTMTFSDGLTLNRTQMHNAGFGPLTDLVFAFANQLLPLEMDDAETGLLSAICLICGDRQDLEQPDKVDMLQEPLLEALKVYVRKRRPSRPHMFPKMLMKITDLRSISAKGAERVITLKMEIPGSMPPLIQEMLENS

[1] = Beagle dogs, n = 3
Description: (§2) intravenous (bolus) injection at a dose level of 0.2 mg/kg. […] Intravenous doses were administered by bolus injection into a cephalic vein at a dose volume of 1 mL/kg. Oral doses were administered by gastric intubation at a dose volume of 5 mL/kg. […] Pharmacokinetic parameters were calculated using the computer program Phoenix WinNonlin version 6.3 (Pharsight Corporation, USA).

[2] = Stability and intrinsic clearance in cryopreserved hepatocytes; details: mouse
Description: (§3) Reactions were terminated by addition of 100 μL of acetonitrile containing carbamazepine as the analytical internal standard. Samples were centrifuged and the supernatant fractions analysed by LC-MS/MS. The instrument responses (peak heights) were referenced to the zero time-point samples (as 100%) in order to determine the percentage of compound remaining. Ln plots of the % remaining, for each compound, were used to determine the half-life for the hepatocyte incubations.

in vivo = details: male, Beagle, dog, iv, 0.5 mg/kg
Description: as §2

human RXR α = target: T2, human RXR α (Homo sapiens, UniProt P19793); assay: Retinoid X Receptor radioligand binding assay, [3H] 9-cis-retinoic acid; details: human recombinant receptor
T2 construct: Panlabs Eurofins Pharma Discovery Services (CRO)
T2 sequence (P19793 1-462): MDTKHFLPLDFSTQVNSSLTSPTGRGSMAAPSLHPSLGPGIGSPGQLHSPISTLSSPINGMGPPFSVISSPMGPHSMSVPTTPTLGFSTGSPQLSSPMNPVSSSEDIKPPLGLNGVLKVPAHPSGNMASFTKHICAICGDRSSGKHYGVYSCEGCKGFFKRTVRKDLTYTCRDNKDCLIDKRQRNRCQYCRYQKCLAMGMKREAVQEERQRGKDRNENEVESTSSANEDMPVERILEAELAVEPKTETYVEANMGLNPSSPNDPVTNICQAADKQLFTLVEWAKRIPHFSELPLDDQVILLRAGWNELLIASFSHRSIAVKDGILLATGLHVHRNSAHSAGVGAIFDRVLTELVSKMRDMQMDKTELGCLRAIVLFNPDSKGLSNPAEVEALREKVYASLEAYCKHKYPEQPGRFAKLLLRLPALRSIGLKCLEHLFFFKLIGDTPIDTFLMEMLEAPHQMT
Description: (§1) [22] The Retinoid X Receptor RXRα and RXRβ radioligand binding assays using [^3H] 9-cis-retinoic acid and the respective human recombinant receptors, were carried out by the CRO Panlabs Eurofins Pharma Discovery Services UK Limited, Gemini Crescent, Dundee Technology Park, Dundee, DD2 1SW.

human RXR β = target: T3, human RXR β (Homo sapiens, UniProt P28702); assay: as above; details: human recombinant receptor
T3 construct: Panlabs Eurofins Pharma Discovery Services (CRO)
T3 sequence (P28702 1-533): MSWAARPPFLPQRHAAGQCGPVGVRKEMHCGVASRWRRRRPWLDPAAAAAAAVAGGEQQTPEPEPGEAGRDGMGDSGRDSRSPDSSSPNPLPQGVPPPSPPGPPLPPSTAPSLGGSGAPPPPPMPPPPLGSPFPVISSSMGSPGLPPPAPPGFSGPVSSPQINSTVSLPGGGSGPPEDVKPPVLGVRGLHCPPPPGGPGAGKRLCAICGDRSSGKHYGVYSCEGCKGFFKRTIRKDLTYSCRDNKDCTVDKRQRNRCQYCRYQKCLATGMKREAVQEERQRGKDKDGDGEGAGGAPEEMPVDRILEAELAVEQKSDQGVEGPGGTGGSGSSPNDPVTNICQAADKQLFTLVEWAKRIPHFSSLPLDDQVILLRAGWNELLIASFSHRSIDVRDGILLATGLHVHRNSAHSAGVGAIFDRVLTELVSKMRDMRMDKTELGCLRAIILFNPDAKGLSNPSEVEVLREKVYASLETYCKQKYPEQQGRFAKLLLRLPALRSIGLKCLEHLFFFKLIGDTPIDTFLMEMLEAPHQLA
Description: as §1

[3] = Stability and intrinsic clearance in cryopreserved hepatocytes; details: cynomolgus monkey
Description: as §3

[4] = tested on: Salmonella Typhimurium (TA98, TA100, and TA1535); assay: Ames test; format: cell-based; details: three bacterial strains; presence and absence of S9
Description: For the first two assays, photometry is used for detection.

hERG channel = target: T4, hERG channel (Homo sapiens, UniProt Q12809); assay: hERG binding assay, displacement of [3H]-astemizole; details: up to 10 μM
T4 construct: host or cells: HEK293 cells expressing HERG (per the cited method)
Description: Interaction with the hERG channel was assessed by displacement of the radioligand [^3H]-astemizole as described by Chiu et al.^3

PK studies in rats = format: in vivo, Sprague-Dawley rats
Description: The Test Items were orally administered at a dose of 10 mg/kg and a dosing volume of 10 mL/kg. […] The Test Items were intravenously administered at a dose of 0.5 mg/kg and a dosing volume of 2 mL/kg. […] Whole blood concentrations of the Test Items were measured using LC-MS/MS and selected pharmacokinetic parameters calculated using Pharsight WinNonLin software. For furthers details see Supplementary data file.

[5] = C57 mice, n = 3
Description: Blood was centrifuged to yield plasma for quantification of parent compound using UPLC-MS/MS. […] Terminal blood samples (approximately 300 μL) were subsequently taken by cardiac puncture under CO2 terminal anaesthesia. Once collected, blood samples were transferred to tubes containing 28 μL of citrate as anti-coagulant and held on ice, for <30 minutes, before centrifugation to generate plasma. Plasma samples aliquots (50 μL) were treated with four volumes of acetonitrile, containing diclofenac as analytical internal standard. Precipitated proteins were removed by centrifugation and the supernatant was analysed by UPLC-MS/MS. Pharmacokinetic parameters were determined by non-compartmental analysis using the software package PK Solutions 2.0 from Summit Research Services.

T4 sequence (Q12809 whole entry): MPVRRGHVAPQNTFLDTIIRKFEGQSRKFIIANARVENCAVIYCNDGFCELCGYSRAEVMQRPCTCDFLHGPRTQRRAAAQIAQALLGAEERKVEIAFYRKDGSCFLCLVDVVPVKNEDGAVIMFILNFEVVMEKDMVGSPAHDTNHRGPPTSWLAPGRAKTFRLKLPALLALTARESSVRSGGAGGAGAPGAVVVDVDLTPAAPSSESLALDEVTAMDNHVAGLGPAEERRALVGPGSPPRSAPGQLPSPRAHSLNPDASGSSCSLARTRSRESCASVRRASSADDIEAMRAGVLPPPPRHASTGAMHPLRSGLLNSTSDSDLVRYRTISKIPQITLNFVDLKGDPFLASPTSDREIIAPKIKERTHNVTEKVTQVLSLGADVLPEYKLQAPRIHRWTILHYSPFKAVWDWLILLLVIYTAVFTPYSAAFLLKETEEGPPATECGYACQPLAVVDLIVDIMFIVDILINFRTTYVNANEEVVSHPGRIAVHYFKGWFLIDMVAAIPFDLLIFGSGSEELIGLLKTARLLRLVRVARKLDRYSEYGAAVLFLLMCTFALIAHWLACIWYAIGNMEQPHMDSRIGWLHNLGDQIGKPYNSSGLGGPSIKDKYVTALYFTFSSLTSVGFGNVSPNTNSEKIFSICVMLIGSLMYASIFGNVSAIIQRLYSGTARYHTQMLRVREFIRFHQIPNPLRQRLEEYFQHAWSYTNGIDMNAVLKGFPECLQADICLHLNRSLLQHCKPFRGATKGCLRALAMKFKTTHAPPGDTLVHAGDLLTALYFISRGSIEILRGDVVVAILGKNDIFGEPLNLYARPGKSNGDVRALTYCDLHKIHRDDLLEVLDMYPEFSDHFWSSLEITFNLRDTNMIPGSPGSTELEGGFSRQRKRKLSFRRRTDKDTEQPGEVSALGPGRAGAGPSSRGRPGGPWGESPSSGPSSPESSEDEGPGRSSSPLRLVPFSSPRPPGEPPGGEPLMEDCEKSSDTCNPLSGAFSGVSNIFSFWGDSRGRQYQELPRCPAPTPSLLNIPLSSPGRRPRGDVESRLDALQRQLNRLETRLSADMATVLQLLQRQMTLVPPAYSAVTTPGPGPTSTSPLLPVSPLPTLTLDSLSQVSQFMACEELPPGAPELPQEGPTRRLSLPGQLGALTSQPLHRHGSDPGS

## CCOc1c(Cl)cc(C(=O)Nc2ccc(C(=O)O)c(C)c2)cc1OC(C)C [Compound 56, 4-(3-Chloro-4-ethoxy-5-isopropoxybenzamido)-2-methylbenzoic acid]
Mouse RAR alpha receptor
  RARα agonist type (partial / full agonist): full agonist
[1]; 0.5 mg/kg iv, 1 mg/kg po
  po F: 83%
[1]; 0.5 mg/kg iv
  iv t1/2: 9.2 h
[1]; 1 mg/kg po
  po Cmax: 2050 ng/mL
  po Tmax: 0.5 h
[2]
  half-life at 1 μM: 3.73 h
  half-life at 30 μM: > 5 h
  hepatocyte CLint at 1 μM: 12 µL/min/1e6 cells
  hepatocyte CLint at 30 μM: < 9 µL/min/1e6 cells
In vivo
  Vd: 0.66 L/kg
  clearance: 2.3 mL/min/kg
Human RXR α
  IC50: > 10 µM
Human RXR β
  IC50: > 10 µM
[3]
  half-life at 1 μM: > 7.5 h
  half-life at 30 μM: > 7.5 h
  hepatocyte CLint at 1 μM: < 3 µL/min/1e6 cells
  hepatocyte CLint at 30 μM: < 3 µL/min/1e6 cells
[4]
  Ames test: negative
hERG channel
  binding to hERG: did not show any significant binding; also recorded: no inhibition
PK studies in rats; 10 mg/kg po, 8% Ethanol/92% PEG-400, n = 4
  rat pK AUC po: 70,765 ng·min mL^−1
PK studies in rats; iv 0.5 mg/kg, n = 4
  rat pK Cl: 7 mL/kg/min
PK studies in rats; male, Sprague-Dawley, whole blood, rat, 10 mg/kg po vs 0.5 mg/kg iv, n = 4, read-out: rat pK F%
  bioavailability: 40%
[5]; 1 mg/kg iv and po, 1 mg/kg
  po F: 84%
[5]; 1 mg/kg iv
  iv t1/2: 1.9 h
[5]; 1 mg/kg po
  po Cmax: 2007 ng/mL
  po Tmax: 0.25 h
